Test results: patent US8247211B2, “Glycopeptide antibiotics” (American Cyanamid Company, priority 2001, dated 2012)

Experiments:
Assay in all cases: In vitro antibacterial evaluation: minimum inhibitory concentration (MIC), broth dilution method
Type in all cases: cell-based
Details in all cases: 18 hours at 35° C.
Enterococcus sp. = tested on: Enterococcus sp.
Summary of the method: (§1)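 NCCLS M7-A2 broth dilution with Mueller-Hinton II, testing 64-0.06 μg/mL antibiotic against 5×10^5 CFU/mL inocula. Test strains include recent methicillin-, penicillin- or vancomycin-resistant clinical isolates. MIC is the lowest concentration preventing growth.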

Escherichia coli = tested on: Escherichia coli
Summary of the method: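 MIC read as lowest drug level preventing visible growth. Organisms at 5×10^5 CFU/mL were exposed to a 64-0.06 μg/mL dilution series in Muller-Hinton II […] following NCCLS broth dilution standard M7-A2.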

Staphylococcus sp. = tested on: Staphylococcus sp.
Summary of the method: as §1

Streptococcus sp. = tested on: Streptococcus sp.
Summary of the method: as §1

Substance: Tri-N-[(phenylmethoxy)carbonyl]-cyclo[glycyl-β-methylphenylalanyltyrosyl-3-(2-iminoimidazolidin-4-yl)seryl-3-β-(2,3:4,6-di-O-isopropylidenehexopyranosyl)-2-iminoimidazolidin-4-yl]seryl-O-(tert-butyldimethylsilyl)seryl] [Example 249]
- MIC Enterococcus avium (GC 4558) (Enterococcus sp.; Enterococcus avium (GC 4558)): 32 µg/mL
- MIC Enterococcus faecalis (ATCC 29212) (Enterococcus sp.; Enterococcus faecalis (ATCC 29212)): 16 µg/mL
- MIC Enterococcus faecalis (GC 2242) (Enterococcus sp.; Enterococcus faecalis (GC 2242)): 32 µg/mL
- MIC Enterococcus faecalis (GC 2691) (Enterococcus sp.; Enterococcus faecalis (GC 2691)): 128 µg/mL
- MIC Enterococcus faecalis (GC 3059) (Enterococcus sp.; Enterococcus faecalis (GC 3059)): 128 µg/mL
- MIC Enterococcus faecalis (GC 4552) (Enterococcus sp.; Enterococcus faecalis (GC 4552)): 64 µg/mL
- MIC Enterococcus faecalis (GC 4553) (Enterococcus sp.; Enterococcus faecalis (GC 4553)): 64 µg/mL
- MIC Enterococcus faecalis (GC 4554) (Enterococcus sp.; Enterococcus faecalis (GC 4554)): 128 µg/mL
- MIC Enterococcus faecalis (GC 6189) (Enterococcus sp.; Enterococcus faecalis (GC 6189)): 64 µg/mL
- MIC Enterococcus faecium (GC 2243) (Enterococcus sp.; Enterococcus faecium (GC 2243)): 64 µg/mL
- MIC Enterococcus faecium (GC 4556) (Enterococcus sp.; Enterococcus faecium (GC 4556)): 32 µg/mL
- MIC Enterococcus faecium (GC 4557) (Enterococcus sp.; Enterococcus faecium (GC 4557)): 64 µg/mL
- MIC Enterococcus faecalis (ATCC 29212) (Enterococcus sp.; broth dilution, strain ATCC 29212): 16 µg/mL
- MIC Enterococcus faecalis (GC 2242) (Enterococcus sp.; broth dilution, strain GC 2242): 32 µg/mL
- MIC Enterococcus faecium (GC 2243) (Enterococcus sp.; broth dilution, strain GC 2243): 64 µg/mL
- MIC Enterococcus faecalis (GC 2691) (Enterococcus sp.; broth dilution, strain GC 2691): 128 µg/mL
- MIC Enterococcus faecalis (GC 3059) (Enterococcus sp.; broth dilution, strain GC 3059): 128 µg/mL
- MIC Enterococcus faecalis (GC 4552) (Enterococcus sp.; broth dilution, strain GC 4552): 64 µg/mL
- MIC Enterococcus faecalis (GC 4553) (Enterococcus sp.; broth dilution, strain GC 4553): 64 µg/mL
- MIC Enterococcus faecalis (GC 4554) (Enterococcus sp.; broth dilution, strain GC 4554): 128 µg/mL
- MIC Enterococcus faecium (GC 4556) (Enterococcus sp.; broth dilution, strain GC 4556): 32 µg/mL
- MIC Enterococcus faecium (GC 4557) (Enterococcus sp.; broth dilution, strain GC 4557): 64 µg/mL
- MIC Enterococcus avium (GC 4558) (Enterococcus sp.; broth dilution, strain GC 4558): 32 µg/mL
- MIC Enterococcus faecalis (GC 6189) (Enterococcus sp.; broth dilution, strain GC 6189): 64 µg/mL
- MIC Escherichia coli (ATCC 25922) (Escherichia coli; Escherichia coli (ATCC 25922)): 128 µg/mL
- MIC Escherichia coli (GC 4559) (Escherichia coli; Escherichia coli (GC 4559)): 128 µg/mL
- MIC Escherichia coli (GC 4560) (Escherichia coli; Escherichia coli (GC 4560)): 128 µg/mL
- MIC Coagulase Negative Staphylococcus (GC 4547) (Staphylococcus sp.; Coagulase Negative Staphylococcus (GC 4547)): 64 µg/mL
- MIC Coagulase Negative Staphylococcus (GC 4548) (Staphylococcus sp.; Coagulase Negative Staphylococcus (GC 4548)): 128 µg/mL
- MIC Coagulase Negative Staphylococcus (GC 4549) (Staphylococcus sp.; Coagulase Negative Staphylococcus (GC 4549)): 128 µg/mL
- MIC Coagulase Negative Staphylococcus (GC 4551) (Staphylococcus sp.; Coagulase Negative Staphylococcus (GC 4551)): 64 µg/mL
- MIC Coagulase Negative Staphylococcus (GC 6257) (Staphylococcus sp.; Coagulase Negative Staphylococcus (GC 6257)): 128 µg/mL
- MIC Staphylococcus aureus (ATCC 29213) (Staphylococcus sp.; Staphylococcus aureus (ATCC 29213)): 128 µg/mL
- MIC Staphylococcus aureus (GC 1131) (Staphylococcus sp.; Staphylococcus aureus (GC 1131)): 128 µg/mL
- MIC Staphylococcus aureus (GC 3051) (Staphylococcus sp.; Staphylococcus aureus (GC 3051)): 128 µg/mL
- MIC Staphylococcus aureus (GC 3053) (Staphylococcus sp.; Staphylococcus aureus (GC 3053)): 128 µg/mL
- MIC Staphylococcus aureus (GC 4541) (Staphylococcus sp.; Staphylococcus aureus (GC 4541)): 128 µg/mL
- MIC Staphylococcus aureus (GC 4542) (Staphylococcus sp.; Staphylococcus aureus (GC 4542)): 64 µg/mL
- MIC Staphylococcus aureus (GC 4544) (Staphylococcus sp.; Staphylococcus aureus (GC 4544)): 64 µg/mL
- MIC Staphylococcus aureus (GC 4545) (Staphylococcus sp.; Staphylococcus aureus (GC 4545)): 128 µg/mL
- MIC Staphylococcus aureus-SMITH (GC 4543) (Staphylococcus sp.; Staphylococcus aureus-SMITH (GC 4543)): 128 µg/mL
- MIC Staphylococcus haemolyticus (GC 4546) (Staphylococcus sp.; Staphylococcus haemolyticus (GC 4546)): 128 µg/mL
- MIC Staphylococcus aureus (ATCC 29213) (Staphylococcus sp.; broth dilution, strain ATCC 29213): 128 µg/mL
- MIC Staphylococcus aureus (GC 1131) (Staphylococcus sp.; broth dilution, strain GC 1131): 128 µg/mL
- MIC Staphylococcus aureus (GC 3051) (Staphylococcus sp.; broth dilution, strain GC 3051): 128 µg/mL
- MIC Staphylococcus aureus (GC 3053) (Staphylococcus sp.; broth dilution, strain GC 3053): 128 µg/mL
- MIC Staphylococcus aureus (GC 4541) (Staphylococcus sp.; broth dilution, strain GC 4541): 128 µg/mL
- MIC Staphylococcus aureus (GC 4542) (Staphylococcus sp.; broth dilution, strain GC 4542): 64 µg/mL
- MIC Staphylococcus aureus-SMITH (GC 4543) (Staphylococcus sp.; broth dilution, strain GC 4543): 128 µg/mL
- MIC Staphylococcus aureus (GC 4544) (Staphylococcus sp.; broth dilution, strain GC 4544): 64 µg/mL
- MIC Staphylococcus aureus (GC 4545) (Staphylococcus sp.; broth dilution, strain GC 4545): 128 µg/mL
- MIC Staphylococcus haemolyticus (GC 4546) (Staphylococcus sp.; broth dilution, strain GC 4546): 128 µg/mL
- MIC Coagulase Negative Staphylococcus (GC 4547) (Staphylococcus sp.; broth dilution, strain GC 4547): 64 µg/mL
- MIC Coagulase Negative Staphylococcus (GC 4548) (Staphylococcus sp.; broth dilution, strain GC 4548): 128 µg/mL
- MIC Coagulase Negative Staphylococcus (GC 4549) (Staphylococcus sp.; broth dilution, strain GC 4549): 128 µg/mL
- MIC Coagulase Negative Staphylococcus (GC 4551) (Staphylococcus sp.; broth dilution, strain GC 4551): 64 µg/mL
- MIC Coagulase Negative Staphylococcus (GC 6257) (Staphylococcus sp.; broth dilution, strain GC 6257): 128 µg/mL
- MIC Streptococcus agalactiae (GC 4564) (Streptococcus sp.; Streptococcus agalactiae (GC 4564)): 128 µg/mL
- MIC Streptococcus pneumoniae (ATCC 6301) (Streptococcus sp.; Streptococcus pneumoniae (ATCC 6301)): 64 µg/mL
- MIC Streptococcus pneumoniae (GC 1894) (Streptococcus sp.; Streptococcus pneumoniae (GC 1894)): 32 µg/mL
- MIC Streptococcus pneumoniae (GC 4565) (Streptococcus sp.; Streptococcus pneumoniae (GC 4565)): 64 µg/mL
- MIC Streptococcus pyogenes (GC 4563) (Streptococcus sp.; Streptococcus pyogenes (GC 4563)): 128 µg/mL
- MIC Streptococcus pneumoniae (ATCC 6301) (Streptococcus sp.; broth dilution, strain ATCC 6301): 64 µg/mL
- MIC Streptococcus pneumoniae (GC 1894) (Streptococcus sp.; broth dilution, strain GC 1894): 32 µg/mL
- MIC Streptococcus pyogenes (GC 4563) (Streptococcus sp.; broth dilution, strain GC 4563): 128 µg/mL
- MIC Streptococcus agalactiae (GC 4564) (Streptococcus sp.; broth dilution, strain GC 4564): 128 µg/mL
- MIC Streptococcus pneumoniae (GC 4565) (Streptococcus sp.; broth dilution, strain GC 4565): 64 µg/mL
